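Briefly, cells in 96-well plates were exposed to five compound concentrations for 48 h, and endpoints were estimated by linear interpolation. The concentration for full growth arrest is given as TGI.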
Tests used:
Assay in all cases: inhibition of tumour cell growth, NCI panel, 48 h
786-0 renal = test system: 786-0 renal
A498 renal = test system: A498 renal
A549 NSCLC = test system: A549 NSCLC
ACHN renal = test system: ACHN renal
CCRF-CEM leukemia = test system: CCRF-CEM leukemia
COLO 205 colon = test system: COLO 205 colon
DLD-1 colon = test system: DLD-1 colon
DMS 114 small cell lung = test system: DMS 114 small cell lung
DMS 273 small cell lung = test system: DMS 273 small cell lung
EKVX NSCLC = test system: EKVX NSCLC
HCC-2998 colon = test system: HCC-2998 colon
HCT-116 colon = test system: HCT-116 colon
HCT-15 colon = test system: HCT-15 colon
HL-60(TB) leukemia = test system: HL-60(TB) leukemia
HOP-18 NSCLC = test system: HOP-18 NSCLC
HOP-62 NSCLC = test system: HOP-62 NSCLC
HT29 colon = test system: HT29 colon
IGROV1 ovarian = test system: IGROV1 ovarian
K-562 leukemia = test system: K-562 leukemia
KM12 colon = test system: KM12 colon
KM20L2 colon = test system: KM20L2 colon
LOX IMVI melanoma = test system: LOX IMVI melanoma
LXFL 529 NSCLC = test system: LXFL 529 NSCLC
M14 melanoma = test system: M14 melanoma
M19-MEL melanoma = test system: M19-MEL melanoma
MALME-3M melanoma = test system: MALME-3M melanoma
MOLT-4 leukemia = test system: MOLT-4 leukemia
NCI-H226 lung = test system: NCI-H226 lung
NCI-H23 lung = test system: NCI-H23 lung
NCI-H460 lung = test system: NCI-H460 lung
NCI-H522 lung = test system: NCI-H522 lung
OVCAR-3 ovarian = test system: OVCAR-3 ovarian
OVCAR-5 ovarian = test system: OVCAR-5 ovarian
OVCAR-8 ovarian = test system: OVCAR-8 ovarian
RPMI-8226 leukemia = test system: RPMI-8226 leukemia
RXF 393 renal = test system: RXF 393 renal
SF-295 CNS = test system: SF-295 CNS
SF-539 CNS = test system: SF-539 CNS
SK-MEL-2 melanoma = test system: SK-MEL-2 melanoma
SK-MEL-28 melanoma = test system: SK-MEL-28 melanoma
SK-MEL-5 melanoma = test system: SK-MEL-5 melanoma
SK-OV-3 ovarian = test system: SK-OV-3 ovarian
SN12C renal = test system: SN12C renal
SNB-19 CNS = test system: SNB-19 CNS
SNB-75 CNS = test system: SNB-75 CNS
SNB-78 CNS = test system: SNB-78 CNS
SR leukemia = test system: SR leukemia
SW-620 colon = test system: SW-620 colon
TK-10 renal = test system: TK-10 renal
U251 CNS = test system: U251 CNS
UACC-257 melanoma = test system: UACC-257 melanoma
UACC-62 melanoma = test system: UACC-62 melanoma
UO-31 renal = test system: UO-31 renal
CAKI-1 renal = test system: CAKI-1 renal
HOP-92 NSCLC = test system: HOP-92 NSCLC
OVCAR-4 ovarian = test system: OVCAR-4 ovarian
RXF-631 renal = test system: RXF-631 renal
SF-268 CNS = test system: SF-268 CNS

Measured: TGI

C[C@H]1CC[P+](C)(c2ccccc2)C1 (stereo partly drawn)
not listed: CAKI-1 renal | HOP-92 NSCLC | OVCAR-4 ovarian | RXF-631 renal | SF-268 CNS
> 100 µM: all other assays above

O=C1CCC(=O)N1Sc1ccccc1
not listed: HCC-2998 colon | HOP-18 NSCLC | HT29 colon | LXFL 529 NSCLC | MALME-3M melanoma | NCI-H226 lung | OVCAR-5 ovarian | SR leukemia
> 100 µM: all other assays above

— PubChem BioAssay (NCI)
